Laboratory results reported in US20260209212A1, “HETEROCYCLIC GLP-1 AGONISTS” (Gasherbrum Bio, Inc., priority 2022, published 2026).

target: GLP-1 Receptor (Homo sapiens, UniProt P43220); experiment: GLP-1R agonist cAMP stimulation assay; format: cell-based; conditions: HEK293/GLP1R/CRE-LUC cells stably expressing the GLP-1 Receptor; cAMP dynamic 2 Kit (Cisbio); 30 min at 37° C.
Description: Activation of GLP-1 receptor is known to stimulate cyclic AMP (cAMP) production in cells which indicates primary coupling to the G as subunit of the G protein heterotrimeric complex.
To optimize functional activity directed toward G as coupling, a HEK293/CRE-Luc cell line developed by HDB stably expressing the GLP-1 Receptor was used. 200× concentration of compound working solutions were prepared (Agilent Technologies Bravo) with ½ log serial dilution in 384-well Echo LDV plate (Labcyte, Cat #LP-0200). 50 nL/well 200× concentration of compound working solutions were moved to 384-well white low volume plate (Greiner, Cat #784075) using Labcyte ECHO550.1×10^5 cells/mL HEK293/GLP1R/CRE-LUC (HD Biosciences) cell suspensions prepared with assay buffer [DPBS containing 0.5 mM IBMX (Sigma, Cat #I5879) and 0.1% BSA (GENVIEW, Cat #FA016-100 g)], 10 μL cell suspensions were added to each well of previous generated assay plate which already contains 50 nL compound at 200× concentration using ThermoFisher Multidrop Combi (1000 cells/well). Seal the plate and incubate at 37° C. with 5% CO2 for 30 min.
After incubation the cAMP assay signal was generated using cAMP dynamic 2 Kit (Cisbio). 5 μL cAMP-d2 working solution was added to each well, followed with 5 μL Anti-cAMP antibody-cryptate working solution added to each well using ThermoFisher Multidrop Combi. Incubate at room temperature for 1 hour protected from light. Read the fluorescence at 665 and 615 nm with Reader PerkinElmer EnVision.

Chain of GLP-1 Receptor (P43220 24-463): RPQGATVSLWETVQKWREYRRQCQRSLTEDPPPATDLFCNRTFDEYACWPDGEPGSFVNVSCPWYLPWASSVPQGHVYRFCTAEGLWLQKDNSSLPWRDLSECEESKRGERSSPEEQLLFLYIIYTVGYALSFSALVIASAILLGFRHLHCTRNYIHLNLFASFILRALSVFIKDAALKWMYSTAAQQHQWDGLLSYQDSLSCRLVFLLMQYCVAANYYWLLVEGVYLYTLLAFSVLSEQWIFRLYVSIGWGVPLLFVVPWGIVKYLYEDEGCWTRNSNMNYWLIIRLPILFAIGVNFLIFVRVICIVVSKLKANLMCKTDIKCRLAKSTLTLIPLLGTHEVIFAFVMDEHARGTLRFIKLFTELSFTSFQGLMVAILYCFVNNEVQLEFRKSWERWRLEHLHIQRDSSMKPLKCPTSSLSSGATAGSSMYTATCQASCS

EC50 | Compound
0.024 nM | O=C(O)c1ccc2nc(CN3CCC(c4cccc5c4OC[C@@H](c4ccc(Cl)c6ccoc46)O5)CC3)n(C[C@@H]3CCO3)c2c1 [Compound 101]
0.065 nM | O=C(O)c1ccc2nc(CN3CCC(c4cccc5c4OC[C@@H](c4ccc6cnn(CC(F)F)c6c4)O5)CC3)n(C[C@@H]3CCO3)c2c1 [Compound 102, 2-({4-[(2R)-2-[1-(2,2-difluoroethyl)-1H-indazol-6-yl]-2,3-dihydro-1,4-benzodioxin-5-yl]piperidin-1-yl}methyl)-1-{[(2S)-oxetan-2-yl]methyl}-1H-1,3-benzodiazole-6-carboxylic acid]
0.057 nM | N#Cc1ccc([C@@H]2COc3c(cccc3C3CCN(Cc4nc5ccc(C(=O)O)c(F)c5n4C[C@@H]4CCO4)CC3)O2)cc1 [Compound 103]
0.027 nM | N#Cc1ccc([C@@H]2COc3c(cccc3C3CCN(Cc4nc5c(F)cc(C(=O)O)cc5n4C[C@@H]4CCO4)CC3)O2)cc1 [Compound 104, 2-({4-[(2R)-2-(4-cyanophenyl)-2,3-dihydro-1,4-benzodioxin-5-yl]piperidin-1-yl}methyl)-4-fluoro-1-{[(2S)-oxetan-2-yl]methyl}-1H-1,3-benzodiazole-6-carboxylic acid]
0.012 nM | CCn1cncc1Cn1c(CN2CCC(c3cccc4c3OC[C@@H](c3ccc(C#N)cc3)O4)CC2)nc2ccc(C(=O)O)cc21 [Compound 105]
1.6 nM | N#Cc1ccc([C@@H]2COc3c(cccc3C3CCN(Cc4nc5ccc(C(=O)O)cc5n4CC4CCOC4)CC3)O2)cc1 (stereo partly drawn) [Compound 106, 2-({4-[(2R)-2-(4-cyanophenyl)-2,3-dihydro-1,4-benzodioxin-5-yl]piperidin-1-yl}methyl)-1-[(oxolan-3-yl)methyl]-1H-1,3-benzodiazole-6-carboxylic acid]
0.18 nM | N#Cc1ccc([C@@H]2COc3c(cccc3C3CCN(Cc4nc5ccc(C(=O)O)cc5n4CC4(C#N)CC4)CC3)O2)cc1 [Compound 107]
0.025 nM | N#Cc1ccc([C@@H]2COc3c(cccc3C3CCN(Cc4nc5c(F)cc(C(=O)O)c(F)c5n4C[C@@H]4CCO4)CC3)O2)cc1 [Compound 108, 2-({4-[(2R)-2-(4-cyanophenyl)-2,3-dihydro-1,4-benzodioxin-5-yl]piperidin-1-yl}methyl)-4,7-difluoro-1-{[(2S)-oxetan-2-yl]methyl}-1H-1,3-benzodiazole-6-carboxylic acid]
0.041 nM | C[C@H]1CC(c2cccc3c2OC[C@@H](c2ccc(C#N)cc2)O3)CCN1Cc1nc2c(F)cc(C(=O)O)cc2n1C[C@@H]1CCO1 (stereo partly drawn) [Compound 109]
100 nM | N#Cc1ccc([C@@H]2COc3c(cccc3C34CCN(Cc5nc6ccc(C(=O)O)cc6n5C[C@@H]5CCO5)CC3C4)O2)cc1 (stereo partly drawn) [Compound 110, 2-({6-[(2R)-2-(4-cyanophenyl)-2,3-dihydro-1,4-benzodioxin-5-yl]-3-azabicyclo[4.1.0]heptan-3-yl}methyl)-1-{[(2S)-oxetan-2-yl]methyl}-1H-1,3-benzodiazole-6-carboxylic acid]
0.017 nM | O=C(O)c1cc(F)c2nc(CN3CCC(c4cccc5c4OC[C@@H](c4ccc(Cl)cc4)O5)CC3)n(C[C@@H]3CCO3)c2c1 [Compound 111, 2-({4-[(2R)-2-(4-chlorophenyl)-2,3-dihydro-1,4-benzodioxin-5-yl]piperidin-1-yl}methyl)-4-fluoro-1-{[(2S)-oxetan-2-yl]methyl}-1H-1,3-benzodiazole-6-carboxylic acid]
0.026 nM | N#CCC1(Cn2c(CN3CCC(c4cccc5c4OC[C@@H](c4ccc(C#N)cc4)O5)CC3)nc3c(F)cc(C(=O)O)cc32)CC1 [Compound 112]
4 nM | CC(=O)N1C[C@H](F)C[C@@H]1Cn1c(CN2CCC(c3cccc4c3OC[C@@H](c3ccc(C#N)cc3)O4)CC2)nc2ccc(C(=O)O)cc21 [Compound 113]
0.024 nM | CO[C@@H]1COC[C@@H]1n1c(CN2CCC(c3cccc4c3OC[C@@H](c3ccc(C#N)cc3)O4)CC2)nc2ccc(C(=O)O)cc21 [Compound 114, 2-({4-[(2R)-2-(4-cyanophenyl)-2,3-dihydro-1,4-benzodioxin-5-yl]piperidin-1-yl}methyl)-1-[(3S,4S)-4-methoxyoxolan-3-yl]-1H-1,3-benzodiazole-6-carboxylic acid]
0.055 nM | O=C(O)c1cc(F)c2nc(CN3CCC(c4cccc5c4OC[C@@H](c4ccc(C(F)F)cc4)O5)CC3)n(C[C@@H]3CCO3)c2c1 [Compound 115]
0.029 nM | O=C(O)c1cc(F)c2nc(CN3CCC(c4cccc5c4OC[C@@H](c4ccc(C(F)(F)F)cc4)O5)CC3)n(C[C@@H]3CCO3)c2c1 [Compound 116]
0.42 nM | O=C(O)c1ccc2nc(CN3CC=C(c4cccc5c4OC[C@@H](c4ccc6cnn(CC(F)F)c6c4)O5)CC3)n(C[C@@H]3CCO3)c2c1 [Compound 117]
0.011 nM | COc1cc(C(=O)O)cc2c1nc(CN1CCC(c3cccc4c3OC[C@@H](c3ccc(C#N)cc3)O4)CC1)n2C[C@@H]1CCO1 [Compound 118, 2-({4-[(2R)-2-(4-cyanophenyl)-2,3-dihydro-1,4-benzodioxin-5-yl]piperidin-1-yl}methyl)-4-methoxy-1-{[(2S)-oxetan-2-yl]methyl}-1H-1,3-benzodiazole-6-carboxylic acid]
0.011 nM | COc1cc(C(=O)O)cc2c1nc(CN1CCC(c3cccc4c3OC[C@@H](c3ccc(Cl)cc3)O4)CC1)n2C[C@@H]1CCO1 [Compound 119, 2-({4-[(2R)-2-(4-chlorophenyl)-2,3-dihydro-1,4-benzodioxin-5-yl]piperidin-1-yl}methyl)-4-methoxy-1-{[(2S)-oxetan-2-yl]methyl}-1H-1,3-benzodiazole-6-carboxylic acid]
0.005 nM | COc1cc(C(=O)O)cc2c1nc(CN1CCC(c3cccc4c3OC[C@@H](c3ccc(Cl)c5ccoc35)O4)CC1)n2C[C@@H]1CCO1 [Compound 120, 2-({4-[(2R)-2-(4-chloro-1-benzofuran-7-yl)-2,3-dihydro-1,4-benzodioxin-5-yl]piperidin-1-yl}methyl)-4-methoxy-1-{[(2S)-oxetan-2-yl]methyl}-1H-1,3-benzodiazole-6-carboxylic acid]
0.031 nM | O=C(O)c1cc(F)c2nc(CN3CCC(c4cccc5c4OC[C@@H](c4ccc(Cl)cc4)O5)CC3)n(C[C@@H]3CCO3)c2c1F [Compound 121]
0.0012 nM | O=C(O)c1cc(F)c2nc(CN3CCC(c4cccc5c4OC[C@@H](c4ccc(Cl)c6ccoc46)O5)CC3)n(C[C@@H]3CCO3)c2c1 [Compound 122, 2-({4-[(2R)-2-(4-chloro-1-benzofuran-7-yl)-2,3-dihydro-1,4-benzodioxin-5-yl]piperidin-1-yl}methyl)-4-fluoro-1-{[(2S)-oxetan-2-yl]methyl}-1H-1,3-benzodiazole-6-carboxylic acid]
1.9 nM | CO[C@H]1COC[C@H]1n1c(CN2CCC(c3cccc4c3OC[C@@H](c3ccc(Cl)cc3)O4)CC2)nc2c(F)cc(C(=O)O)cc21 [Compound 123]
0.68 nM | COc1cc(C(=O)O)cc2c1nc(CN1CCC(c3cccc4c3OC[C@@H](c3ccc(C#N)cc3)O4)CC1)n2[C@@H]1COC[C@@H]1OC [Compound 124]
0.77 nM | O=C(O)c1ccc2nc(CN3CC=C(c4cccc5c4OC[C@@H](c4ccc(Cl)cc4)O5)CC3)n(C[C@@H]3CCO3)c2c1 [Compound 125]
1.6 nM | CC1=C(c2cccc3c2OC[C@@H](c2ccc(Cl)cc2)O3)CCN(Cc2nc3ccc(C(=O)O)cc3n2C[C@@H]2CCO2)C1 [Compound 126]
500 nM | O=C(O)c1ccc2nc(CN3CCC4(c5cccc6c5OC[C@@H](c5ccc(Cl)cc5)O6)CC4C3)n(C[C@@H]3CCO3)c2c1 (stereo partly drawn) [Compound 127]
0.79 nM | O=C(O)c1ccc2nc(CN3CCC(c4nccc5c4OC[C@@H](c4ccc(Cl)cc4)O5)CC3)n(C[C@@H]3CCO3)c2c1 [Compound 128]
0.38 nM | O=C(O)c1ccc2nc(CN3CCC(c4c(F)ccc5c4OC[C@@H](c4ccc(Cl)cc4)O5)CC3)n(C[C@@H]3CCO3)c2c1 [Compound 129, 2-[[4-[(2R)-2-(4-chlorophenyl)-6-fluoro-2,3-dihydro-1,4-benzodioxin-5-yl]-1-piperidyl]methyl]-3-[[(2S)-oxetan-2-yl]methyl]benzimidazole-5-carboxylic acid]
0.16 nM | O=C(O)c1ccc2nc(CN3CCC(c4ccnc5c4OC[C@@H](c4ccc(Cl)cc4)O5)CC3)n(C[C@@H]3CCO3)c2c1 [Compound 130, 2-((4-((R)-3-(4-chlorophenyl)-2,3-dihydro-[1,4]dioxino[2,3-b]pyridin-8-yl)piperidin-1-yl)methyl)-1-(((S)-oxetan-2-yl)methyl)-1H-benzo[d]imidazole-6-carboxylic acid]
